Patent EP0326331B1, “Substituted quinolines and cinnolines” (Dow AgroSciences LLC, priority 1988, dated 1989)

How the values were obtained:
Assay type in all cases: in vivo
[1] = test system: Pyricularia oryzae (rice blast); assay: whole plant or invertebrate; settings: disease control rating, foliar spray on rice, 400 ppm (+++ at 100 ppm)
[2] = test system: Botrytis cinerea (gray mold); assay: Test 1 greenhouse foliar spray screen, gray mold on grape berries; settings: disease control rating, spray on grape berries, 400 ppm (+++ at 100 ppm)
[3] = test system: Pseudoperonospora cubensis (downy mildew); assay: Test 1 greenhouse foliar spray screen, downy mildew on squash; settings: disease control rating, foliar spray on squash, 400 ppm (+++ at 100 ppm)
[4] = test system: melon aphids (Aphis gossypii Glover); assay: Mite/insect screen, MA; settings: Aphis gossypii, percent mortality, SAW, read-out: MA RESULTS %; for mortality at 200 ppm: SM & MA RATE 200 PPM; for mortality at 400 ppm: SM & MA RATE 400 PPM
Protocol: (§1) The compounds of Examples 1-295 were tested for miticidal and insecticidal activity in the following mite/insect screen.
(§2) Each test compound was formulated by dissolving the compound in acetone/alcohol (50:50) mixture containing 23 g of "TOXIMUL R" (sulfonate/nonionic emulsifier blend) and 13 g of "TOXIMUL S" (sulfonate/nonionic emulsifier blend) per liter. These mixtures were then diluted with water to give the indicated concentrations.
(§3) Other plants in the same treatment pot were left uninfested. The leaves were then sprayed with 5 ml of test solution using a DeVilbiss atomizing sprayer at 10 psi. Both surfaces of the leaves were covered until runoff, and then allowed to dry for one hour. Two uninfested leaves were then excised and placed into a Petri dish containing southern armyworm (Spodopetra eridania Cramer).
(§4) After standard exposure periods, percent mortality was evaluated. […]

[5] = test system: Puccinia recondita tritici (leaf rust); assay: Test 1 greenhouse foliar spray screen, leaf rust on wheat; settings: disease control rating, foliar spray on wheat, 400 ppm (+++ at 100 ppm)
[6] = test system: Erysiphe graminis tritici (powdery mildew); assay: Test 1 greenhouse foliar spray screen, powdery mildew on wheat; settings: disease control rating, foliar spray on wheat, 400 ppm (+++ at 100 ppm)
[7] = test system: southern armyworm (Spodopetra eridania Cramer); assay: Mite/insect screen, SAW; settings: Spodoptera eridania, percent mortality, SAW, read-out: SAW RESULTS %; for mortality at 200 ppm: SM & MA RATE 200 PPM; for mortality at 400 ppm: SM & MA RATE 400 PPM
Protocol: as §1, §2, §3, §4

corn rootworm = assay: Mite/insect screen, CRW; settings: percent mortality, read-out: CRW RESULTS %; for mortality at 12 ppm: CRW RATE 12.00 PPM; for mortality at 24 ppm: CRW RATE 24.00 PPM
Protocol: as §1, §2, §4

[8] = test system: Twospotted spider mites (Tetranychus urticae Koch); assay: Mite/insect screen, SM; settings: for mortality at 200 ppm / mortality at 400 ppm: Tetranychus urticae, percent mortality, SAW, read-out: SM RESULTS %; for mortality at 200 ppm: SM & MA RATE 200 PPM; for mortality at 400 ppm: SM & MA RATE 400 PPM
Protocol: as §1, §2, §3, §4

| Structure (SMILES) | RICE BLAST [1] | GRAY MOLD [2] | DOWN MDEW [3] | mortality at 200 ppm [4] [%] | mortality at 400 ppm [4] [%] | LEAF RUST [5] | POWD MDEW [6] | mortality at 200 ppm [7] [%] | mortality at 400 ppm [7] [%] | mortality at 12 ppm (corn rootworm) [%] | mortality at 24 ppm (corn rootworm) [%] | mortality at 200 ppm [8] [%] | mortality at 400 ppm [8] [%] | activity as miticides ([8]; summary statement in the description) |
| --- | --- | --- | --- | --- | --- | --- | --- | --- | --- | --- | --- | --- | --- | --- |
| CC(=O)N(CCc1c(C)c(C)c(C)c(C)c1C)c1ccnc2c(F)cccc12 [Example 131, N-[2-(pentamethylphenyl)ethyl]-N-(8-fluoro-4-quinolinyl)acetamide] | - (0-19% control at 400 ppm) | - (0-19% control at 400 ppm) | + (20-89% control at 400 ppm) | 0 | 0 | - (0-19% control at 400 ppm) | - (0-19% control at 400 ppm) | 0 | 0 | 0 | 0 | 0 | 0 | – |
| CC(=O)N(CCc1ccccc1Cl)c1ccnc2c(Cl)cccc12 [Example 132, N-[2-(2-chlorophenyl)ethyl]-N-(8-chloro-4-quinolinyl)acetamide] | - (0-19% control at 400 ppm) | - (0-19% control at 400 ppm) | - (0-19% control at 400 ppm) | 0 | 0 | - (0-19% control at 400 ppm) | - (0-19% control at 400 ppm) | 0 | 0 | 0 | 0 | 0 | 0 | – |
| COc1ccc(CCNc2ccnc3c(C)c(C)ccc23)cc1 [Example 133, N-[2-(4-methoxyphenyl)ethyl]-7,8-dimethyl-4-quinolinamine] | + (20-89% control at 400 ppm) | - (0-19% control at 400 ppm) | + (20-89% control at 400 ppm) | 0 | 0 | + (20-89% control at 400 ppm) | - (0-19% control at 400 ppm) | 0 | 0 | 0 | 0 | 0 | 0 | – |
| Clc1ccc2c(NCCCc3ccc(-c4ccccc4)cc3)ccnc2c1 [Example 134, 7-chloro-N-[3-(1,1'-biphenyl)-4-ylpropyl]-4-quinolinamine] | ++ (90-100% control at 400 ppm) | - (0-19% control at 400 ppm) | +++ (90-100% control at 100 ppm) | – | 0 | + (20-89% control at 400 ppm) | + (20-89% control at 400 ppm) | – | 0 | – | 0 | – | 0 | – |
| Fc1cccc2c(NCCCc3ccc(-c4ccccc4)cc3)ccnc12 [Example 137, N-[3-(1,1'-biphenyl)-4-ylpropyl]-8-fluoro-4-quinolinamine] | +++ (90-100% control at 100 ppm) | - (0-19% control at 400 ppm) | +++ (90-100% control at 100 ppm) | – | 80 | + (20-89% control at 400 ppm) | + (20-89% control at 400 ppm) | – | 100 | – | 0 | – | 80 | particularly excellent activity |
| CC(CCc1ccccc1)Nc1ccnc2c(F)cccc12 (stereo not drawn) [Example 138, 8-fluoro-N-(1-methyl-3-phenylpropyl)-4-quinolinamine] | + (20-89% control at 400 ppm) | - (0-19% control at 400 ppm) | +++ (90-100% control at 100 ppm) | – | 0 | + (20-89% control at 400 ppm) | - (0-19% control at 400 ppm) | – | 0 | – | 0 | – | 0 | – |
| CC(=O)N(CCCCc1ccc(Cl)cc1)c1ccnc2c(F)cccc12 [Example 141, N-[4-(4-chlorophenyl)butyl]-N-(8-fluoro-4-quinolinyl)acetamide] | ++ (90-100% control at 400 ppm) | - (0-19% control at 400 ppm) | + (20-89% control at 400 ppm) | 0 | 0 | + (20-89% control at 400 ppm) | - (0-19% control at 400 ppm) | 0 | 0 | 0 | 0 | 0 | 0 | – |
| Cc1ccc(C)c2c(NCCC3=CCCCC3)ccnc12 [Example 142, N-[2-(1-cyclohexenyl)ethyl]-5,8-dimethyl-4-quinolinamine] | ++ (90-100% control at 400 ppm) | - (0-19% control at 400 ppm) | +++ (90-100% control at 100 ppm) | 0 | 0 | ++ (90-100% control at 400 ppm) | - (0-19% control at 400 ppm) | 0 | 0 | 0 | 0 | 0 | 0 | – |
| CC(=O)N(CCC1=CCCCC1)c1ccnc2ccc(F)cc12 [Example 146, N-[2-(1-cyclohexenyl)ethyl]-N-(6-fluoro-4-quinolinyl)acetamide] | - (0-19% control at 400 ppm) | - (0-19% control at 400 ppm) | + (20-89% control at 400 ppm) | 0 | 0 | - (0-19% control at 400 ppm) | - (0-19% control at 400 ppm) | 0 | 0 | 0 | 0 | 0 | 0 | – |
| OC(CNc1ccnc2c(F)cccc12)c1ccc2ccccc2c1 (stereo not drawn) [Example 157, α-[[(8-fluoro-4-quinolinyl)amino]methyl]-2-naphthalenemethanol] | ++ (90-100% control at 400 ppm) | - (0-19% control at 400 ppm) | +++ (90-100% control at 100 ppm) | – | 0 | ++ (90-100% control at 400 ppm) | - (0-19% control at 400 ppm) | – | 100 | – | 0 | – | 80 | – |
| CC(=O)N(CCC1=CCCCC1)c1ccnc2c(C)ccc(C)c12 [Example 160, N-[2-(1-cyclohexenyl)ethyl]-N-(5,8-dimethyl-4-quinolinyl)acetamide] | + (20-89% control at 400 ppm) | - (0-19% control at 400 ppm) | - (0-19% control at 400 ppm) | 0 | 0 | - (0-19% control at 400 ppm) | - (0-19% control at 400 ppm) | 0 | 0 | 0 | 0 | 0 | 0 | – |
| CC(=O)N(CCC1CCCCC1)c1ccnc2c(F)cccc12 [Example 161, N-(2-cyclohexylethyl)-N-(8-fluoro-4-quinolinyl)acetamide] | + (20-89% control at 400 ppm) | - (0-19% control at 400 ppm) | + (20-89% control at 400 ppm) | 0 | 80 | - (0-19% control at 400 ppm) | + (20-89% control at 400 ppm) | 0 | 0 | 0 | 40 | 0 | 0 | – |
